Structures can show the parent of a compound that is named as a salt.
system: not given; assay: not given; conditions: not given

| melting point | SMILES |
| --- | --- |
| 173 to 175 °C | CCc1cnc2c(c1)CCN2C(=O)c1cc2[nH]c(=O)c3nnc(CC4CC4)n3c2cc1C (as salt: hydrochloride) [Example 6, 1-(cyclopropylmethyl)-7-[(5-ethyl-2,3-dihydro-11′-pyrrolo[2,3-b]pyridin-1-yl)carbonyl]-8-methyl[1,2,4]triazolo[4,3-a]quinoxalin-4(5H)-one dihydrochloride] |
| 296 to 303 °C | Cc1cc2c(cc1C(=O)N1CCc3cc(Br)cnc31)[nH]c(=O)c1cnc([C@@H]3CCC[C@@H]3O)n12 (racemic) [Example 5, 7-[(5-bromo-2,3-dihydro-1H-pyrrolo[2,3-b]pyridin-1-yl)carbonyl]-1-(cis-2-hydroxycyclopentyl)-8-methylimidazo[1,5-a]quinoxalin-4(5H)-one] |
| 321 to 324 °C (dec.) | O=C(c1cc2[nH]c(=O)c3cnc(C4CCOCC4)n3c2cc1OCC1CCOC1)N1CCc2cc(Br)cnc21 (stereo not drawn) [Example 1, 7-[(5-bromo-2,3-dihydro-1H-pyrrolo[2,3-b]pyridin-1-yl)carbonyl]-8-(tetrahydrofuran-3-ylmethoxy)-1-(tetrahydro-2H-pyran-4-yl)imidazo[1,5-a]quinoxalin-4(5H)-one] |
| 275 to 277 °C | COc1cc2c(cn1)N(C(=O)c1cc3[nH]c(=O)c4cnc(C5CCOCC5)n4c3cc1F)CC2 [Example 2, 8-fluoro-7-[(5-methoxy-2,3-dihydro-1H-pyrrolo[2,3-c]pyridin-1-yl)carbonyl]-1-(tetrahydro-2H-pyran-4-yl)imidazo[1,5-a]quinoxalin-4(5H)-one] |

target: T1, PDE9 (Homo sapiens, UniProt O76083); assay: PDE9-inhibiting activity (SPA, 3H-cGMP degradation); assay type: biochemical; conditions: PDE9-inhibiting activity (IC50 values), cGMP 1 μM, 30° C.
T1 construct: made in house
Method: The PDE9 used in the present experiment was expressed/purified by the method as in, for example, Guipponi et al., and Fisher et., al. (Fisher, D. A., et al., J. Biol. Chem., 273: pp. 15559-15564 (1998), Guipponi, M., et al., Hum. Genet., 103: pp. 386-392 (1998)).
(2) Evaluation of PDE9-Inhibiting Activity
The PDE9-inhibiting activity was measured by the following method. That is, to a buffer solution containing tris(hydroxymethyl)aminomethane-hydrochloric acid (40 mM, pH 8.0), magnesium chloride (5 mM), and 2-mercaptoethanol (4 mM) were added cGMP (1 μM) and ^3H-cGMP (0.33 μCi/ml) to give a substrate buffer solution. A test substance solution and an enzyme solution which had been adjusted to an optimal concentration were added thereto to perform a reaction at 30° C. The enzyme reaction was stopped by the addition of Scintillation Proximity Assay (SPA) Beads (Perkin Elmer, USA) containing 5 mM 3-isobutyl-1-methylxanthine (IBMX). For the enzyme activity, the amount of 5′-GMP, which is a reaction degradation product bound to SPA beads, was measured with a TopCount microplate reader (Hewlett Packard, USA).
The inhibitory rate was calculated by taking the radioactivity of the control containing no test substance as (A), taking the radioactivity of the blank containing no enzyme as (B), and taking the radioactivity of the test substance as (C), and using the following equation. Inhibitory rate=100−{(C)−(B)/(A)−(B)}×100(%)

T1 sequence (O76083 whole entry): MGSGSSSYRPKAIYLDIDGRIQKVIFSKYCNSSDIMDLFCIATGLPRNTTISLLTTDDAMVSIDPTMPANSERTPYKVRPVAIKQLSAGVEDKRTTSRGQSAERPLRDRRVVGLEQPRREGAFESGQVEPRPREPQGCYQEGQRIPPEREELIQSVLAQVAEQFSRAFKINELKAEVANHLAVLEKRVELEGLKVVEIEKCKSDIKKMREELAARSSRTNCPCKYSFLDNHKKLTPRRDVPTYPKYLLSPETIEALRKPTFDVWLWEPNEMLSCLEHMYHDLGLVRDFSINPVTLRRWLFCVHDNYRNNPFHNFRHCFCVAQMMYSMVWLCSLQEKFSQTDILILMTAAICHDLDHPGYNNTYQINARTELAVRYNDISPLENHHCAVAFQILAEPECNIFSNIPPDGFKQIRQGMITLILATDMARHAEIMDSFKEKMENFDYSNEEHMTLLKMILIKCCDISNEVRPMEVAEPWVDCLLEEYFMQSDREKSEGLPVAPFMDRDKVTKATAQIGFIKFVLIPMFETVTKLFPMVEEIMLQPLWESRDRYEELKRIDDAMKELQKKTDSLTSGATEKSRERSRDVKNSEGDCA

| SMILES | IC50 |
| --- | --- |
| Cc1cc2c(cc1C(=O)N1CCc3cc(Br)cnc31)[nH]c(=O)c1cnc([C@@H]3CCC[C@@H]3O)n12 (racemic) [Example 5, 7-[(5-bromo-2,3-dihydro-1H-pyrrolo[2,3-b]pyridin-1-yl)carbonyl]-1-(cis-2-hydroxycyclopentyl)-8-methylimidazo[1,5-a]quinoxalin-4(5H)-one] | 62 nM |
| COCc1cc2c(cc1C(=O)N1CCc3cc(C)cnc31)[nH]c(=O)c1cnc(C3CCOC3)n12 (single isomer, unassigned) [Example 25(a)] | 62 nM |
| Cc1cnc2c(c1)CCN2C(=O)c1cc2[nH]c(=O)c3cnc(C4CCOC4)n3c2cc1C (single isomer, unassigned) [Example 26(a)] | 152 nM |
| COc1cc2c(cn1)N(C(=O)c1cc3[nH]c(=O)c4cnc(C5CCOC5)n4c3cc1C)CC2 (single isomer, unassigned) [Example 27(a)] | 137 nM |
| CCc1cnc2c(c1)CCN2C(=O)c1cc2[nH]c(=O)c3cnc(C4CCOC4)n3c2cc1C (single isomer, unassigned) [Example 28(a)] | 139 nM |
| CCc1cnc2c(c1)CCN2C(=O)c1cc2[nH]c(=O)c3cnc(C4CCOC4)n3c2cc1C (single isomer, unassigned) [Example 28(b)] | 47 nM |
| Cc1cc2c(cc1C(=O)N1Cc3c(F)ccc(F)c3C1)[nH]c(=O)c1cnc(C3CCOC3)n12 (single isomer, unassigned) [Example 39(a)] | 52 nM |
| CCc1cnc2c(c1)CCN2C(=O)c1cc2[nH]c(=O)c3cnc(C4CCOC4)n3c2cc1COC (single isomer, unassigned) [Example 40(a)] | 77 nM |
| COCc1cc2c(cc1C(=O)N1CCc3cc(OC)ncc31)[nH]c(=O)c1cnc(C3CCOC3)n12 (single isomer, unassigned; (-)) [Example 4(a), (−)-7-[(5-methoxy-2,3-dihydro-1H-pyrrolo[2,3-c]pyridin-1-yl)carbonyl]-8-(methoxymethyl)-1-(tetrahydrofuran-3-yl)imidazo[1,5-a]quinoxalin-4(5H)-one dihydrochloride] | 62 nM |
| COc1cc2c(cn1)N(C(=O)c1cc3[nH]c(=O)c4cnc(C5CCOCC5)n4c3cc1F)CC2 [Example 2, 8-fluoro-7-[(5-methoxy-2,3-dihydro-1H-pyrrolo[2,3-c]pyridin-1-yl)carbonyl]-1-(tetrahydro-2H-pyran-4-yl)imidazo[1,5-a]quinoxalin-4(5H)-one] | 51 nM |
| CCc1cnc2c(c1)CCN2C(=O)c1cc2[nH]c(=O)c3nnc(CC4CC4)n3c2cc1C [Example 6, 1-(cyclopropylmethyl)-7-[(5-ethyl-2,3-dihydro-11′-pyrrolo[2,3-b]pyridin-1-yl)carbonyl]-8-methyl[1,2,4]triazolo[4,3-a]quinoxalin-4(5H)-one dihydrochloride] | 64 nM |
| CCc1cnc2c(c1)CCN2C(=O)c1cc2[nH]c(=O)c3cnc(C4CCOC4)n3c2cc1C (stereo not drawn) [Example 28] | 52 nM |
| Cc1cc2c(cc1C(=O)N1Cc3c(F)ccc(F)c3C1)[nH]c(=O)c1nnc(C3CCC3)n12 [Example 36] | 53 nM |
| CCc1cc2c(cc1C(=O)N1Cc3c(F)ccc(F)c3C1)[nH]c(=O)c1nnc(C3CCC3)n12 [Example 37] | 53 nM |

Further lines, results first:

| IC50 | SMILES |
| --- | --- |
| 45 nM | Cc1cnc2c(c1)CCN2C(=O)c1cc2[nH]c(=O)c3cnc(C4CCOC4)n3c2cc1C (single isomer, unassigned) [Example 26(b)] |
| 24 nM | Cc1cc2c(cc1C(=O)N1CCc3cc(Br)cnc31)[nH]c(=O)c1cnc(C3CCOC3)n12 (single isomer, unassigned) [Example 29(a)] |
| 38 nM | Cc1cc2c(cc1C(=O)N1CCc3cc(F)c(F)cc31)[nH]c(=O)c1cnc(C3CCOC3)n12 (single isomer, unassigned) [Example 30(a)] |
| 14 nM | Cc1cc2c(cc1C(=O)N1Cc3c(F)ccc(F)c3C1)[nH]c(=O)c1cnc(C3CCOC3)n12 (single isomer, unassigned) [Example 39(b)] |
| 16 nM | CCc1cnc2c(c1)CCN2C(=O)c1cc2[nH]c(=O)c3cnc(C4CCOC4)n3c2cc1COC (single isomer, unassigned) [Example 40(b)] |
| 25 nM | COCc1cc2c(cc1C(=O)N1CCc3cc(Br)cnc31)[nH]c(=O)c1cnc(C3CCOC3)n12 (single isomer, unassigned) [Example 43(a)] |
| 26 nM | COCc1cc2c(cc1C(=O)N1Cc3c(F)ccc(F)c3C1)[nH]c(=O)c1cnc(C3CCOC3)n12 (single isomer, unassigned) [Example 45(a)] |
| 3.5 nM | O=C(c1cc2[nH]c(=O)c3cnc(C4CCOCC4)n3c2cc1OCC1CCOC1)N1CCc2cc(Br)cnc21 (stereo not drawn) [Example 1, 7-[(5-bromo-2,3-dihydro-1H-pyrrolo[2,3-b]pyridin-1-yl)carbonyl]-8-(tetrahydrofuran-3-ylmethoxy)-1-(tetrahydro-2H-pyran-4-yl)imidazo[1,5-a]quinoxalin-4(5H)-one] |
| 1.3 nM | COCC1Cc2cc(Cl)ccc2N1C(=O)c1cc2[nH]c(=O)c3nnc(C4CCOCC4)n3c2cc1C (stereo not drawn) [Example 9] |
| 31 nM | Cc1cc2c(cc1C(=O)N1Cc3cccc(CN(C)C)c3C1)[nH]c(=O)c1cnc(C3CCOCC3)n12 [Example 11] |
| 3.6 nM | O=C(c1cc2[nH]c(=O)c3cnc(C4CCOCC4)n3c2cc1F)N1CCc2cc(Cl)ccc21 [Example 12] |
| 14 nM | COCc1cccc2c1CN(C(=O)c1cc3[nH]c(=O)c4cnc(C5CCOCC5)n4c3cc1C)C2 [Example 14] |
| 3.3 nM | CCc1cc2c(cc1C(=O)N1CCc3cc(Cl)ccc31)[nH]c(=O)c1nnc(CC3CC3)n12 [Example 16] |
| 8.5 nM | CCc1cc2c(cc1C(=O)N1CCc3cc(F)ccc31)[nH]c(=O)c1nnc(CC3CC3)n12 [Example 17] |
| 5.4 nM | CCc1cc2c(cc1C(=O)N1CCc3cc(Br)cnc31)[nH]c(=O)c1nnc(CC3CC3)n12 [Example 18] |
| 15 nM | Cc1cc2c(cc1C(=O)N1CCc3cc(Br)cnc31)[nH]c(=O)c1cnc(C3CCOC3)n12 (stereo not drawn) [Example 29] |
| 11 nM | Cc1cc2c(cc1C(=O)N1CCc3cc(F)c(F)cc31)[nH]c(=O)c1cnc(C3CCOC3)n12 (stereo not drawn) [Example 30] |
| 0.81 nM | Cc1cc2c(cc1C(=O)N1CC(C)(C)c3cc(Br)cnc31)[nH]c(=O)c1nnc(C3CCOCC3)n12 [Example 33] |
| 7.5 nM | COC1CC(c2nnc3c(=O)[nH]c4cc(C(=O)N5CCc6cc(Br)cnc65)c(C)cc4n23)C1 (stereo not drawn) [Example 34] |
| 19 nM | CCc1cc2c(cc1C(=O)N1CCc3cc(Br)cnc31)[nH]c(=O)c1nnc(C3CCC3)n12 [Example 35] |
| 28 nM | Cc1cc2c(cc1C(=O)N1Cc3c(F)ccc(F)c3C1)[nH]c(=O)c1nnc(CC3CC3)n12 [Example 38] |

From patent publication US8901126B2, “Substituted imidazo[1,5-A]quinoxalin-4-ones are useful for preventing or treating storage dysfunction, voiding dysfunction and bladder/urethral diseases” (priority 2010, dated 2014)
